Our source for the GI50 and TGI values is PubChem BioAssay (NCI).

Molecules are shown by their SMILES.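 Dose response: 5 concentrations. Exposure: 48 h. Format: 96-well plates. Endpoint: linear interpolation; highest concentration if not reached. The concentration for 50% growth inhibition is given as GI50. TGI marks complete inhibition of growth.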 A value given as a limit tells only on which side of the number the result lay.

Holding throughout (experiment): NCI anticancer screen, dose series, 48 h
The subject of assay [1] is OVCAR-8 ovarian.
In assay [2] the test system is HL-60(TB) leukemia.
For assay [3], the system named is 786-0 renal.
Assay [4] has as its system CAKI-1 renal.
Assay [5] has as its system HOP-92 NSCLC.
Assay [6] has as its system RPMI-8226 leukemia.
Assay [7] relates to ACHN renal.
The subject of assay [8] is MALME-3M melanoma.
Assay [9] deals with OVCAR-4 ovarian.
In assay [10] the test system is SR leukemia.

Take `Cc1cc(Cl)ccc1NS(=O)(=O)c1ccc(-c2cnc(C3CC3)o2)cc1`: the GI50 in assay [1] was 0.427 µM; in assay [2], 0.202 µM; in assay [3] it was 0.561 µM; in [4], 0.127 µM; in assay [5] it was 1.05 µM; in assay [6] it was 0.343 µM. Also, the GI50 is 0.649 µM in [7], 0.567 µM in [8], 2.98 µM in assay [9] and 0.0967 µM in [10]. The TGI in assay [1] was 15.2 µM; in assay [2] it was 2.89 µM; in assay [3], 17.5 µM; in assay [4], 17.6 µM; in assay [5] it was 13 µM; in assay [6] it was 23.1 µM. Moreover, the TGI in assay [7] was 20.5 µM; in assay [8] it was 26.7 µM; in [9] it was 20.6 µM; in assay [10], 28.4 µM.
Take `COc1cc(/C=C(\C#N)C(N)=C(C#N)C#N)cc(O)c1O`: the TGI is more than 100 µM in [1]; more than 81.5 µM in assay [2]; more than 100 µM in assay [3]; more than 100 µM in [4]; more than 100 µM in [5]; more than 100 µM in [6]. Also, the TGI in assay [7], in [8], in assay [9] and in [10] was more than 100 µM each time.
Turning to `Cc1cc(Cl)ccc1Nc1nc(C(F)(F)F)ccc1C(=O)N1CCN(c2cccc(Cl)c2)CC1`, the GI50 in assay [1] is more than 100 µM; in assay [2] it was 69.6 µM; in assay [3] it was more than 100 µM; in [4], 90.7 µM; in [5], 73.4 µM; in assay [6] it was 37.2 µM. The GI50 is more than 100 µM in assay [7], more than 100 µM in [8], 30 µM in assay [9] and more than 100 µM in assay [10]. Further, the TGI in [1], in assay [2], in assay [3], in assay [4], in assay [5] and in assay [6] was more than 100 µM throughout. In addition, the TGI in assay [7], in assay [8], in assay [9] and in [10] was more than 100 µM each time.
Regarding `CC1COCC(C)N1C1=C(Cl)C(=O)c2ccccc2C1=O` (stereo not given), the GI50 in assay [1] was 3.73 µM; in assay [2] it was 2.02 µM; in assay [3], 3.67 µM; in assay [4] it was 1.56 µM; in [5] it was 0.554 µM; in [6], 2.04 µM. Also, the GI50 was 1.66 µM in assay [7], 1.5 µM in assay [8], 1.61 µM in assay [9] and 2.28 µM in assay [10]. The TGI in assay [1] worked out at 13.6 µM; in assay [2], 5.03 µM; in assay [3], 13.5 µM; in [4], 2.97 µM; in assay [5], 2.06 µM; in [6], 5.68 µM. For the same compound, the TGI in [7] amounted to 3.06 µM; in assay [8] it was 2.97 µM; in assay [9], 3.03 µM; in assay [10], 5.97 µM.
Regarding `CCOP(=O)(Nc1ccc2oc(=O)c3ccccc3c2c1)OCC`, the TGI was more than 100 µM in assay [1]; 55.8 µM in [2]; more than 100 µM in assay [3]; more than 100 µM in [4]; more than 100 µM in assay [5]; 98.2 µM in assay [6]. Also, the TGI in assay [7], in assay [8], in assay [9] and in [10] was more than 100 µM each time.
`CN(C=O)/C=C/c1cc(O)ccc1O`: the TGI is 72.4 µM in assay [1]; 40.8 µM in [2]; 33.7 µM in assay [3]; 38.9 µM in assay [4]; 34.8 µM in assay [5]; 75.6 µM in assay [6]. Moreover, the TGI in assay [7] is 29.7 µM; in assay [8], more than 63.3 µM; in [9] it was 33.6 µM; in assay [10], 51.1 µM.
As for `CC1(C)OC2C(COS(N)(=O)=O)SC(n3cnc4cncnc43)C2O1` (stereo not given), the GI50 in [1], in [2], in assay [3], in assay [4], in [5] and in assay [6] was more than 100 µM each time. Besides, the GI50 in [7], in assay [8], in assay [9] and in assay [10] was more than 100 µM in each case. For the same compound, the TGI in [1], in assay [2], in assay [3], in assay [4], in assay [5] and in [6] was more than 100 µM throughout. Besides, the TGI in [7], in [8], in assay [9] and in assay [10] was more than 100 µM each time.
On to `N#CC1C=Cc2ccccc2N1C(=O)Oc1ccccc1` (stereo not given), for which the TGI was more than 100 µM in [1]; 48.6 µM in [2]; more than 100 µM in [3]; more than 100 µM in assay [4]; more than 100 µM in assay [5]; 61.3 µM in assay [6]. In addition, the TGI in assay [7], in assay [8], in assay [9] and in assay [10] was more than 100 µM in each case.
Turning to `CC/C=C\C/C=C\C[C@H](O)C/C=C1/C(=O)C=C[C@@H]1C/C=C\CCCC(=O)OC`, the GI50 in [1] was 0.774 µM; in assay [2], 1.71 µM; in [3], 1.82 µM; in [4] it was 3.41 µM; in assay [5], 2.62 µM; in assay [6] it was 0.572 µM. The GI50 in [7] is 1.72 µM; in [8] it was 1.92 µM; in assay [9], 4.06 µM; in [10], 0.281 µM. Moreover, the TGI in assay [1] was 13 µM; in [2] it was 6.06 µM; in [3], 3.52 µM; in [4] it was 14.5 µM; in assay [5], 6.02 µM; in assay [6], 7.32 µM. Besides, the TGI in [7] was 3.4 µM; in [8], 4.88 µM; in [9], 20.2 µM; in assay [10], 1.87 µM.
